The values below come from ChEMBL document CHEMBL1144857, “4-Biphenyl and 2-naphthyl substituted 6,7-dimethoxytetrahydroisoquinoline derivatives as potent P-gp modulators” (Bioorg Med Chem, 2008).

Activity calls are given as the source filed them. No cut-off for these calls is given here.

The nature of data set [1]: Inhibition of human P-gp mediated [3H]vinblastine transport activity in human Caco-2 cells. It is filed as cell-based. The conditions noted are these: Caco-2, 2 h.
Data set [2] deals with ATP-dependent translocase ABCB1 (Homo sapiens, UniProt P08183). In words: Activation of human P-gp ATPase in human Caco-2 cells at 100 uM. Format: cell-based. As to conditions: caco-2, 100 µM.
The nature of data set [3]: (§1) Apparent permeability from basolateral to apical side of human Caco-2 cell membrane. It is filed as ADME, cell-based.
The nature of data set [4]: (§2) Apparent permeability from apical to basolateral side of human Caco-2 cell membrane. Format: ADME, cell-based.
Data set [5] deals with T1, Broad substrate specificity ATP-binding cassette transporter ABCG2 (Homo sapiens, UniProt Q9UNQ0).
T1 sequence (Q9UNQ0 whole entry): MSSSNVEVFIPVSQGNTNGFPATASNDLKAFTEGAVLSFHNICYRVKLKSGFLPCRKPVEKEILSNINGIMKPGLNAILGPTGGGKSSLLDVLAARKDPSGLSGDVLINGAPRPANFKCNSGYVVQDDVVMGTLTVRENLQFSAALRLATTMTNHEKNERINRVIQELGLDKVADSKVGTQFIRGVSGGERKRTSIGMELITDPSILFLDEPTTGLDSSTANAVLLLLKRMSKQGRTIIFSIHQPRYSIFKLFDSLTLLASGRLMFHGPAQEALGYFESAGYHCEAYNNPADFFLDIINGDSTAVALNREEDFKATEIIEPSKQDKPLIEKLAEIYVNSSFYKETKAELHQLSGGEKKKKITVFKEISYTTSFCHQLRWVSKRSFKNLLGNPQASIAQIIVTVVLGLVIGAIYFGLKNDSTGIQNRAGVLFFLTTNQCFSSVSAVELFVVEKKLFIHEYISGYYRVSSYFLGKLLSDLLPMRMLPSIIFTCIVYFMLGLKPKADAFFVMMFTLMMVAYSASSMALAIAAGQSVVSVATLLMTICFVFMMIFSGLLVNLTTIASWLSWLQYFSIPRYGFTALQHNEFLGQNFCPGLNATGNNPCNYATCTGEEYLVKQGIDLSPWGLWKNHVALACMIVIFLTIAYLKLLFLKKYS
In words: Inhibition of human BCRP mediated [3H]mitoxantrone transport activity in human Caco-2 cells. Format: cell-based.

The next data set concerns MCF7. In words: Antiproliferative activity against adriamycin resistant human MCF7 cells after 24 hrs by MTT assay. It is filed as functional, cell-based.
The nature of data set [6]: Activity at P-pg.
The test system of data set [7] is Caco-2. Described as §1. It is filed as ADME, cell-based.
Data set [8] has as its system Caco-2. The data set is described as §2. It is filed as ADME, cell-based.
The subject of data set [9] is Caco-2. Description: Ratio of permeability from […] side of human Caco-2 cell membrane. Format: ADME, cell-based.
The next data set addresses T2, BCRP (ABCG2) (Homo sapiens, UniProt Q9UNQ0).
T2 sequence (Q9UNQ0 whole entry): T1 sequence (Q9UNQ0 whole entry)
In words: Inhibition of human BCRP mediated [3H]mitoxantrone transport activity in human Caco-2 cells at 100 uM. As to conditions: Caco-2, probe [3H]mitoxantrone. It is filed as cell-based.

Chain of ATP-dependent translocase ABCB1 (P08183 whole entry): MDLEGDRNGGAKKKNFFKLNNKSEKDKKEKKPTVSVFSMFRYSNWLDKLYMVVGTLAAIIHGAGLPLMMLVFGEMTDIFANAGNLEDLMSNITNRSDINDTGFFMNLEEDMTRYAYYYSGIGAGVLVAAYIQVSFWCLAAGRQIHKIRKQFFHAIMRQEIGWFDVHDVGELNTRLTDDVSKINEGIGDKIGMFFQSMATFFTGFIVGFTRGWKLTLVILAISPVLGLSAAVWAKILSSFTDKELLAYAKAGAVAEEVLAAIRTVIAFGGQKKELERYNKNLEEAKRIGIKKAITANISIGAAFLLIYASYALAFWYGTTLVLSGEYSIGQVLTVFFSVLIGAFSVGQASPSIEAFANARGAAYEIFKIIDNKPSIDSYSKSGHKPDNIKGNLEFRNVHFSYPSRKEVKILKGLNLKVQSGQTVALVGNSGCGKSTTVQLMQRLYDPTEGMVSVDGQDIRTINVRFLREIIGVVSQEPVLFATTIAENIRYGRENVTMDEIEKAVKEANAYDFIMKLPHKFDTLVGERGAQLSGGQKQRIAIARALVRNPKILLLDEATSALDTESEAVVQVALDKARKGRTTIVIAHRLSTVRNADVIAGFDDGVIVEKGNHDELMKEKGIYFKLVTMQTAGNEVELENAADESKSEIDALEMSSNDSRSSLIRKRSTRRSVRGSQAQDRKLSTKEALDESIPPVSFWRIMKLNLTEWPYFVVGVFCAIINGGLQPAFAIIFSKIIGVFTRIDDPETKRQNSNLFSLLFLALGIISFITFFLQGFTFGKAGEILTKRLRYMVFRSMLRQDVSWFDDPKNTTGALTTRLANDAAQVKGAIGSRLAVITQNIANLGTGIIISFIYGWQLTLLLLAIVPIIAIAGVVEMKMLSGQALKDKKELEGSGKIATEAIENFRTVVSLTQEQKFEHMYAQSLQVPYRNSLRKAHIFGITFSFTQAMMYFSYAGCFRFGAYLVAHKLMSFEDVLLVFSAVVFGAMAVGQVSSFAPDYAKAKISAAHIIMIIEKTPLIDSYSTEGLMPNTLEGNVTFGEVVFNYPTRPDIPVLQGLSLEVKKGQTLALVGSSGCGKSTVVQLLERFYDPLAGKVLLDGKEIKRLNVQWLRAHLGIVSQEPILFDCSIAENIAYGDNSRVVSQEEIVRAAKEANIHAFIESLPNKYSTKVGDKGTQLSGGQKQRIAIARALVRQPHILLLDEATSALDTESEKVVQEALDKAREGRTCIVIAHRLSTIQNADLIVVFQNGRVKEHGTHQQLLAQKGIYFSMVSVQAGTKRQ

`COc1cc2c(cc1OC)CN(Cc1ccc3cc(O)ccc3c1)CC2`: the EC50 in data set [1] amounted to 450 nM. In [2], the Activity turned out to be 10%. Further, the Papp B→A in [3] turned out to be 235 ×10⁻⁶ cm/s. Besides, in [4], the Papp A→B was 35.3 ×10⁻⁶ cm/s.
Consider `COc1cc2c(cc1OC)CN(CC/C=C1\CCCc3c(OC)cccc31)CC2`, for which, in data set [1], a half-maximal effect (EC50) was put at 1640 nM. Moreover, the Activity result was “Not Active” in [2] and “Active” in data set [5].
Consider `COc1cc2c(cc1OC)CN(Cc1ccc3ccccc3c1)CC2`, for which, in [1], the response was half-maximal at 800 nM (EC50). Further, in data set [2], the Activity result was “Not Active”. In addition, the Papp B→A in data set [3] came to 180 ×10⁻⁶ cm/s. Moreover, in data set [4], the apical-to-basolateral permeability (Papp A→B) is 21.6 ×10⁻⁶ cm/s.
In turn, `COc1cc2c(cc1OC)CN(Cc1ccc(-c3ccccc3)cc1)CC2` registered an EC50 in data set [1] of 100 nM. The result in the data set with MCF7 was inactive. Moreover, the Activity result in data set [2] was “Not Active”. Moreover, the Papp B→A in data set [3] was 141 ×10⁻⁶ cm/s. The Papp A→B in data set [4] was determined as 77.7 ×10⁻⁶ cm/s.
Turning to `COc1cc2c(cc1OC)CN(Cc1ccccc1-c1ccccc1)CC2`, in data set [1], the EC50 was 15000 nM. Also, the Activity result in [2] is recorded as “Not Active”. In addition, the Papp B→A in data set [3] was 197 ×10⁻⁶ cm/s. Also, the Papp A→B in data set [4] turned out to be 21.6 ×10⁻⁶ cm/s.
For `COc1ccc2cc(C(=O)N3CCc4cc(OC)c(OC)cc4C3)ccc2c1`, in that order: 18000 nM, “Not Active”, 123 ×10⁻⁶ cm/s and 19.3 ×10⁻⁶ cm/s.
In data set [6], `COc1cccc2c1CCCC2CCCN1CCN(C2CCCCC2)CC1` (stereo not drawn) showed an EC50 of 550 nM.
`COc1cc2c(cc1OC)CN(C(=O)c1ccc3cc(O)ccc3c1)CC2` registered an EC50 in data set [1] of 650 nM. The molecule also yielded an Activity in data set [2] of 40%. The Papp B→A in data set [3] was 190 ×10⁻⁶ cm/s. The Papp A→B in data set [4] came out at 25.1 ×10⁻⁶ cm/s.
`COc1cc2c(cc1OC)CN(CCc1ccc(NC(=O)c3cccc4c(=O)c5cccc(OC)c5[nH]c34)cc1)CC2` came in with an EC50 in data set [1] of 2000 nM. Further, in data set [2], the Activity result is listed as “Not Active”.
As to `COc1cc2c(cc1OC)CN(C(=O)c1ccc(-c3ccccc3)cc1)CC2`, in data set [1], the EC50 was found to be 28000 nM. In [2], this molecule had an Activity of 35%. Also, the basolateral-to-apical permeability (Papp B→A) in [3] amounted to 244 ×10⁻⁶ cm/s. In addition, in data set [4], the Papp A→B came to 60.1 ×10⁻⁶ cm/s.
For `COc1cc2c(cc1OC)CN(C(=O)c1ccc(-c3ccc(O)cc3)cc1)CC2` the same measures were 3500 nM, “Not Active”, 277 ×10⁻⁶ cm/s and 28 ×10⁻⁶ cm/s.
Molecule `COc1ccc2cc(CN3CCc4cc(OC)c(OC)cc4C3)ccc2c1` had an EC50 in data set [1] of 300 nM. The Activity result in data set [2] is on record as “Not Active”. Besides, the Papp in the data set with Caco-2 [7] came to 67.7 ×10⁻⁶ cm/s; in the data set with Caco-2 [8], 18.7 ×10⁻⁶ cm/s. In the data set on Caco-2 [9], the Ratio was 3.6.
In data set [1], `COc1cc2c(cc1OC)CN(C(=O)c1ccc3ccccc3c1)CC2` showed an EC50 of 20000 nM. Besides, in data set [2], the Activity came to 10%. In data set [3], the Papp B→A worked out at 415 ×10⁻⁶ cm/s. Moreover, in data set [4], the Papp A→B amounted to 32.4 ×10⁻⁶ cm/s.
In the case of `COc1cc2c(cc1OC)CN(Cc1ccc(-c3ccc(O)cc3)cc1)CC2`, the EC50 in data set [1] stood at 50 nM. Moreover, the outcome in the data set on MCF7 was inactive. The Activity result in data set [2] is recorded as “Not Active”. The Papp B→A in data set [3] is 60.9 ×10⁻⁶ cm/s. Also, in data set [4], the Papp A→B is 47.6 ×10⁻⁶ cm/s. The molecule further showed an inhibition at 100 µM against BCRP (ABCG2) of 19%.
Take `COc1cc2c(cc1OC)CN(Cc1cccc(-c3ccccc3)c1)CC2`: in [1], the EC50 was found to be 6500 nM. Besides, the Activity result in [2] is “Not Active”. In addition, the Papp B→A in data set [3] was found to be 366 ×10⁻⁶ cm/s. Also, in data set [4], the Papp A→B came to 30.1 ×10⁻⁶ cm/s.
